The source of these data is paper PMC12627862, “Therapeutic targeting of endothelial calcium signaling accelerates the resolution of lung injury” (Signal Transduction and Targeted Therapy, 2025).

Starred links: 1 amine or outer side, 2 acyl side, 3 side chain; linkers in the order of their positions; H or OH if unused. Non-standard residues stand in square brackets, D forms with d. Residues, ends and D or L forms follow the SMILES beside them. ξ: configuration not given here. Oic = O=C(O)[C@@H]1C[C@@H]2CCCC[C@@H]2N1; GABOB(3R) = O=C(C[C@@H](O)CN[*:1])[*:2]; tBuAla = CC(C)(C)C[C@H](N)C(=O)O; ξVal(3-OH) = CC(C)(O)C(N)C(=O)O; 4Amb = NCc1ccc(C(=O)O)cc1

The assay concerns CD-1 mice subjected to mechanical ventilation. Description: High tidal volume mechanical ventilation (VILI). In kind it is in vivo, mouse. Conditions: HVMV 40 mL/kg bw for 2 hours; i.v. 2 µmol/kg bw. The text has this:
Severely ill ARDS patients undergo intubation and are placed on a mechanical ventilator to maintain adequate oxygen levels in the body[42]. This supportive intervention can have detrimental effects on the lungs, leading to diffuse ventilator-induced lung injury (VILI) in the regions exposed to the highest pressure. Furthermore, VILI primarily targets alveolar epithelial cells, in contrast to indirect models of ARDS, such as endotoxemia and sepsis, where systemic inflammation predominantly injures the pulmonary endothelial barrier. Thus, as a part of a safety study, we investigated the effects of VT-109 on the pathogenesis of VILI. Mice that received vehicle or VT-109 at the most efficacious dose of 2 µmol/kg bw were subjected to high-volume mechanical ventilation (HVMV) at 40 mL/kg bw for 2 hours, and albumin extravasation was measured to determine VILI-induced vascular leakage (Fig. 4g, h).
Mice intubated with a 20-gauge catheter were ventilated using a Harvard Apparatus ventilator (Harvard Bioscience) with high tidal volumes of 40 mL/kg body weight, a respiratory rate of 80 breaths per minute, and no positive end-expiratory pressure (PEEP) for 2 hours to induce ventilator-induced lung injury (VILI). Intravenous treatment with 250 nmol/kg bw VT-109 was administered at the onset of HVMV. Mice breathing spontaneously were used as experimental control.

For `CC(C)(C)C[C@@H]1NC(=O)C[C@@H](O)CNC(=O)[C@@H]2C[C@@H]3CCCC[C@@H]3N2C(=O)[C@H](CC(C)(C)C)NC(=O)c2ccc(cc2)CNC(=O)C(C(C)(C)O)NC(=O)[C@@H](Cc2ccccc2)NC1=O` (stereo partly drawn) [compound 109, (1^2S,1^3aS,1^7aS,3S,10S,13R,16S,20R)-13-benzyl-20-hydroxy-10-(2-hydroxypropan-2-yl)-3,16-dineopentyl-1^2,1^3,1^3a,1^4,1^5,1^6,1^7,1^7a-octahydro-1^1H-4,8,11,14,17,22-hexaaza-1(1,2)-indola-6(1,4)-benzenacyclotricosaphane-2,5,9,12,15,18,23-heptaone.] (cyclo([4Amb][tBuAla][Oic][GABOB(3R)][tBuAla][dF][ξVal(3-OH)])), the “VILI-induced vascular albumin leakage” value is given as “markedly reduced leakage” and the “recruitment of neutrophils (MPO levels in the lung tissues)” value is recorded as “prevented”.
